The text below walks through data of patent US9233111B2, “Pyrrolo pyrimidine derivatives” (NOVARTIS AG, priority 2011, dated 2016).

By IC50 is commonly meant the concentration at which inhibition is half-maximal.

Test [1] deals with Btk (Homo sapiens (Human), UniProt Q06187). The experiment in a line: Inhibition of cellular Btk activity: Btk-dependent FcG receptor-induced IL-8 secretion in differentiated THP1 cells. In kind it is cell-based. Particulars: IgG-stimulated IL-8 secretion, 24 hours. How it is done:
Alternatively, the present compounds might also be assessed for their capacity to inhibit Btk-dependent FcG receptor-induced IL-8 secretion in human cells. The human myeloid leukemia THP1 cell line (ATCC TIB202) was grown in RPMI 1640 medium supplemented with 10% FCS and 15 nM 1, 25-dihydroxy Vitamin D3 during 4 days before use to induced myeloid differentiation. A sufficient number of tissue-culture grade 384-well plates was coated with human IgG of unknown specificity by incubating overnight at 4° C. with 40 μl/well of a 50 μg/ml IgG solution in PBS. On the day of the experiment, plates were washed 5 times with 80 μl water on a Molecular Devices Aquamax DW4 plate washer. Solutions of the test compounds in 90% DMSO were added to each well on a Hamilton Microlab Star liquid handling station to 40 μl/well tissue culture medium and the total DMSO concentration was adjusted to 0.1%. Differentiated THP1 cells were then added in 40 μl/well to reach a final density of 5'000 cells/well in 80 μl culture medium. After 24 hours, IL-8 secretion was measured in the supernatant by the IL-8 HTRF assay following the protocol of the vendor (CisBio international). Inhibition data were calculated by comparison to control cultures without IgG stimulus enzyme (100% inhibition) and without inhibitors (0% inhibition). The concentration of inhibitor required for 50% inhibition (IC50) was calculated from the inhibition in response to inhibitor concentrations.

Test [2] has as its target full-length human recombinant BTK (Homo sapiens (Human), UniProt Q06187). In words: Inhibition of Btk enzymatic activity (biochemical enzyme assay, Caliper). Particulars: 30° C., 60 minutes. The essentials:
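Reaction of 6.4 nM BTK (stock) with 4 μM FITC-peptide and 164 μM ATP (stock solution), 60 min at 30 °C in pH 7.5 HEPES with Mg2+/Mn2+. Phospho-peptide separated and quantified by microfluidic mobility shift after EDTA stop; IC50 from 8-point concentration–response.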

Chain of full-length human recombinant BTK (Q06187 whole entry): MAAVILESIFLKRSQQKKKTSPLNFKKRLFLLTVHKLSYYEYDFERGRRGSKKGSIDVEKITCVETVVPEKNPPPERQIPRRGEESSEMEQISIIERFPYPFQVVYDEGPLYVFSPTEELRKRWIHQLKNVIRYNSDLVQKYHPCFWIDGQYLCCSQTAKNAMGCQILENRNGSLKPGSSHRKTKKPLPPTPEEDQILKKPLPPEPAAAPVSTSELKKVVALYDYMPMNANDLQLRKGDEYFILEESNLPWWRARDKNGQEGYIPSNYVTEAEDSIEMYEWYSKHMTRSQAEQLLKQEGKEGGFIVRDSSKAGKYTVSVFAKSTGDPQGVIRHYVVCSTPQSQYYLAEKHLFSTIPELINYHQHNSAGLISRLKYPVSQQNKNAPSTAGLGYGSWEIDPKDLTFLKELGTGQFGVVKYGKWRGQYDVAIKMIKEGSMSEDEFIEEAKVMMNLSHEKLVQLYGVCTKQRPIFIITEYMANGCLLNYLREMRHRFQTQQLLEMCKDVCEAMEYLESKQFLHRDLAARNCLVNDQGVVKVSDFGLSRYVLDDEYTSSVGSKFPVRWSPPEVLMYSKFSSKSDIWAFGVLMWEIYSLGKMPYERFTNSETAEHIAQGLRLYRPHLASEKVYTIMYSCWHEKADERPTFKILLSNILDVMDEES
Chain of Btk (Q06187 whole entry): as above

As for `Cc1c(NC(=O)c2cc3c(s2)CCC(C)C3)cc(F)cc1-c1ncnc2[nH]c(C3=CCN(C(=O)N(C)C)CC3)cc12` (centres unmarked) [Example 3, 4-(4-{5-Fluoro-2-methyl-3-[(5-methyl-4,5,6,7-tetrahydro-benzo[b]thiophene-2-carbonyl)-amino]-phenyl}-7H-pyrrolo[2′3-d]pyrimidin-6-yl)-3,6-dihydro-2H-pyridine-1-carboxylic acid dimethylamide], the IC50 came out at 27 nM in test [1] and 5 nM in test [2].

Take `CN(C)C(=O)N1CC=C(c2cc3c(-c4cccc(NC(=O)c5ccc(C(C)(C)O)cc5F)c4CO)ncnc3[nH]2)CC1` [Example 16, 4-(4-{3-[2-Fluoro-4-(1-hydroxy-1-methyl-ethyl)-benzoylamino]-2-hydroxymethyl-phenyl}-7H-pyrrolo[2,3-d]pyrimidin-6-yl)-3,6-dihydro-2H-pyridine-1-carboxylic acid dimethylamide]: the figures for the half-inhibitory concentration (IC50) in test [1] and in test [2] were 69 nM and 2 nM, respectively.

As for `CC(C)(C)c1ccc(C(=O)Nc2cccc(-c3ncnc4[nH]c(C5=CCN(C(=O)CF)CC5)cc34)c2CO)cc1` [Example 38, 4-tert-Butyl-N-(3-{6-[1-(2 fluoro-acetyl)-1,2,3,6-tetrahydro-pyridin-4-yl]-7H-pyrrolo[2,3-d]pyrimidin-4-yl}-2-hydroxymethyl-phenyl)-benzamide], the IC50 was found to be 20 nM in test [1] and 27 nM in test [2].

As for `CN(C)C(=O)N1CC=C(c2cc3c(-c4ccc(F)c(NC(=O)N5CC(OC(C)(C)C)C5)c4)ncnc3[nH]2)CC1` [Example 62, 4-(4-{3-[(3-tert-Butoxy-azetidine-1-carbonyl)-amino]-4-fluoro-phenyl}-7H-pyrrolo[2,3-d]pyrimidin-6-yl)-3,6-dihydro-2H-pyridine-1-carboxylic acid dimethylamide], the IC50 stood at 71 nM in test [1] and 2 nM in test [2].
